Counter-ions that a name gives are not always drawn. Bridge positions count the residues as written; N and C are the ends. Square brackets hold non-standard residues; d marks the D form. Peptide text beside a SMILES is read from it. * marks the point of attachment. ξ: configuration not given here. Thr(3ξ) = CC(O)[C@H](N)C(=O)O; Dab = NCC[C@H](N)C(=O)O; Inp = O=C(O)C1CCNCC1; X4 = NC1CCCC1C(=O)*; Ahx = NCCCCCC(=O)O
Key:
Format in all cases: cell-based
Pseudomonas aeruginosa [1] = assay: MIC, sole activity (no second agent); details: in the absence of Rifampicin; for MIC P. aeruginosa ATCC 27853: strain ATCC27853; for MIC P. aeruginosa ATCCCRM-9027: strain ATCCCRM-9027; for MIC P. aeruginosa CCUG 59626: strain CCUG 59626
Summary of the method: (§1)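 Up to four strains per species were tested in cation-adjusted Mueller-Hinton broth, with inoculum made by direct colony suspension from 18-24 hour Mueller-Hinton agar plates, adjusted to 0.5 McFarland. Duplicates differing by under 2-fold gave the lower value; greater spread voided the run. Values are relative to Polymyxin B.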

Acinetobacter baumannii [2] = assay: MIC, sole activity (no second agent); details: in the absence of Rifampicin; for MIC A. baumannii ATCCBAA-747: strain ATCCBAA-747; for MIC A. baumannii NCTC 13423: strain NCTC13423; for MIC A. baumannii ATCC13424: strain ATCC13424
Summary of the method: as §1

Escherichia coli [3] = assay: MIC, sole activity (no second agent); details: in the absence of Rifampicin
Summary of the method: as §1

Klebsiella pneumoniae [4] = assay: MIC, sole activity (no second agent); details: in the absence of Rifampicin; for MIC K. pneumoniae ATCC 4352: strain ATCC 4352; for MIC K. pneumoniae ATCC-BAA2146: strain ATCC-BAA2146; for MIC K. pneumoniae CCUG-59348: strain CCUG-59348
Summary of the method: as §1

Pseudomonas aeruginosa [5] = assay: MIC, compound in combination with a second agent (broth microdilution); details: 1:1 (wt:wt) combination with Rifampicin
Summary of the method: (§2)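 Read-out is the total-drug MIC of a 1:1 weight ratio combination with another agent, e.g. rifampicin. Duplicates within 2-fold gave the lower value; wider spread meant a non-valid assay. Where compounds were tested multiple times, the mode is given.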

Acinetobacter baumannii [6] = assay: as above; details: 1:1 (wt:wt) combination with Rifampicin
Summary of the method: as §2

Escherichia coli [7] = assay: as above; details: 1:1 (wt:wt) combination with Rifampicin
Summary of the method: as §2

Klebsiella pneumoniae [8] = assay: as above; details: 1:1 (wt:wt) combination with Rifampicin; for MIC K. pneumoniae ATCC 4352: strain ATCC 4352
Summary of the method: as §2

[9] = MIC = total drug concentration, strain ATCC CRM-9027
[10] = MIC = total drug concentration, strain ATCC-47
[11] = MIC = total drug concentration, strain CCUG 59626
[12] = MIC = total drug concentration, strain ATCC BAA-747
[13] = MIC = total drug concentration, strain CCUG57249
[14] = MIC = total drug concentration, strain NCTC 13423
[15] = MIC = total drug concentration, strain NCTC 13424
[16] = MIC = total drug concentration, strain ATCC25922
[17] = MIC = total drug concentration, strain NCTC9001
[18] = MIC = total drug concentration, strain ATCC-BAA-2146
[19] = MIC = total drug concentration, strain CCUG-59348
[20] = MIC = total drug concentration, strain NCTC 13438
[21] = MIC = total drug concentration, strain ATCC 27853
[22] = MIC is total drug concentration

CC(C)C[C@@H]1NC(=O)[C@@H](Cc2ccccc2)NC(=O)[C@H](CCN)NC(=O)[C@@H](NC(=O)[C@H](CCN)NC(=O)[C@@H](NC(=O)CCCCCN)C(C)O)CCNC(=O)[C@H](C(C)O)NC(=O)[C@H](CCN)NC(=O)[C@H](CCN)NC1=O (stereo partly drawn) [Example 2, 6-Aminohexanoyl polymyxin B nonapeptide] (H-[Ahx][Thr(3ξ)][Dab][Dab][Dab][dF]L[Dab][Dab][Thr(3ξ)]; lactam 4-C)
MIC P. aeruginosa ATCC 27853 (Pseudomonas aeruginosa [1]): 0.5 micrograms/mL | MIC P. aeruginosa ATCCCRM-9027 (Pseudomonas aeruginosa [1]): 0.25 micrograms/mL | MIC A. baumannii ATCCBAA-747 (Acinetobacter baumannii [2]): 8 micrograms/mL | MIC A. baumannii NCTC 13423 (Acinetobacter baumannii [2]): 0.5 micrograms/mL | MIC E. coli ATCC25922 (Escherichia coli [3]; strain ATCC25922): 2 micrograms/mL | MIC E. coli NCTC9001 (Escherichia coli [3]; strain NCTC9001): 8 micrograms/mL | MIC K. pneumoniae ATCC 4352 (Klebsiella pneumoniae [4]): 0.5 micrograms/mL | MIC P. aeruginosa ATCC CRM-9027 (Pseudomonas aeruginosa [5]; [9]): 0.25 micrograms/mL | MIC P. aeruginosa ATCC-47 (Pseudomonas aeruginosa [5]; [10]): 0.25 micrograms/mL | MIC P. aeruginosa CCUG 59626 (Pseudomonas aeruginosa [5]; [11]): 0.125 micrograms/mL | MIC A. baumannii ATCC BAA-747 (Acinetobacter baumannii [6]; [12]): ≤0.06 micrograms/mL | MIC A. baumannii CCUG57249 (Acinetobacter baumannii [6]; [13]): ≤0.06 micrograms/mL | MIC A. baumannii NCTC 13423 (Acinetobacter baumannii [6]; [14]): ≤0.06 micrograms/mL | MIC A. baumannii NCTC 13424 (Acinetobacter baumannii [6]; [15]): ≤0.06 micrograms/mL | MIC E. coli ATCC25922 (Escherichia coli [7]; [16]): 0.125 micrograms/mL | MIC E. coli NCTC9001 (Escherichia coli [7]; [17]): 0.5 micrograms/mL | MIC K. pneumoniae ATCC-BAA-2146 (Klebsiella pneumoniae [8]; [18]): 0.5 micrograms/mL | MIC K. pneumoniae CCUG-59348 (Klebsiella pneumoniae [8]; [19]): 4 micrograms/mL | MIC K. pneumoniae NCTC 13438 (Klebsiella pneumoniae [8]; [20]): 0.5 micrograms/mL

CC(C)C[C@@H]1NC(=O)[C@@H](Cc2ccccc2)NC(=O)[C@H](CCN)NC(=O)[C@@H](NC(=O)[C@H](CCN)NC(=O)[C@@H](NC(=O)C2CCCC2N)C(C)O)CCNC(=O)[C@H](C(C)O)NC(=O)[C@H](CCN)NC(=O)[C@H](CCN)NC1=O (stereo partly drawn) [Example 7, (1R,S/2R,S)-2-Aminocyclopentane-carbonyl polymyxin B nonapeptide] (X4-[Thr(3ξ)][Dab][Dab][Dab][dF]L[Dab][Dab][Thr(3ξ)]; lactam 3-C)
MIC P. aeruginosa ATCC 27853 (Pseudomonas aeruginosa [1]): 0.125 micrograms/mL | MIC P. aeruginosa ATCC-47 (Pseudomonas aeruginosa [1]; strain ATCC-47): 1 micrograms/mL | MIC P. aeruginosa ATCCCRM-9027 (Pseudomonas aeruginosa [1]): 0.125 micrograms/mL | MIC P. aeruginosa CCUG 59626 (Pseudomonas aeruginosa [1]): 0.125 micrograms/mL | MIC A. baumannii ATCC13424 (Acinetobacter baumannii [2]): 2 micrograms/mL | MIC A. baumannii ATCCBAA-747 (Acinetobacter baumannii [2]): 1 micrograms/mL | MIC A. baumannii CCUG57249 (Acinetobacter baumannii [2]; strain CCUG 57249): 2 micrograms/mL | MIC A. baumannii NCTC 13423 (Acinetobacter baumannii [2]): 1 micrograms/mL | MIC K. pneumoniae ATCC 4352 (Klebsiella pneumoniae [4]): 0.5 micrograms/mL | MIC K. pneumoniae ATCC-BAA2146 (Klebsiella pneumoniae [4]): >32 micrograms/mL | MIC K. pneumoniae CCUG-59348 (Klebsiella pneumoniae [4]): >32 micrograms/mL | MIC P. aeruginosa ATCC 27853 (Pseudomonas aeruginosa [5]; [21]): 0.125 micrograms/mL | MIC P. aeruginosa ATCC CRM-9027 (Pseudomonas aeruginosa [5]; [9]): 0.25 micrograms/mL | MIC P. aeruginosa ATCC-47 (Pseudomonas aeruginosa [5]; [10]): 0.25 micrograms/mL | MIC P. aeruginosa CCUG 59626 (Pseudomonas aeruginosa [5]; [11]): 0.125 micrograms/mL | MIC A. baumannii ATCC BAA-747 (Acinetobacter baumannii [6]; [12]): ≤0.06 micrograms/mL | MIC A. baumannii CCUG57249 (Acinetobacter baumannii [6]; [13]): ≤0.06 micrograms/mL | MIC A. baumannii NCTC 13423 (Acinetobacter baumannii [6]; [14]): ≤0.06 micrograms/mL | MIC A. baumannii NCTC 13424 (Acinetobacter baumannii [6]; [15]): 0.125 micrograms/mL | MIC E. coli ATCC25922 (Escherichia coli [7]; [16]): ≤0.06 micrograms/mL | MIC E. coli NCTC9001 (Escherichia coli [7]; [17]): 0.25 micrograms/mL | MIC K. pneumoniae ATCC 4352 (Klebsiella pneumoniae [8]; MIC = total drug concentration): 0.125 micrograms/mL | MIC K. pneumoniae ATCC-BAA-2146 (Klebsiella pneumoniae [8]; [18]): 0.25 micrograms/mL | MIC K. pneumoniae CCUG-59348 (Klebsiella pneumoniae [8]; [19]): 4 micrograms/mL | MIC K. pneumoniae NCTC 13438 (Klebsiella pneumoniae [8]; [20]): 0.5 micrograms/mL

CC(C)C[C@@H]1NC(=O)[C@@H](Cc2ccccc2)NC(=O)[C@H](CCN)NC(=O)[C@@H](NC(=O)[C@H](CCN)NC(=O)[C@@H](NC(=O)C2CCNCC2)C(C)O)CCNC(=O)[C@H](C(C)O)NC(=O)[C@H](CCN)NC(=O)[C@H](CCN)NC1=O (stereo partly drawn) [Example 29, 4-piperidinecarbonyl polymyxin B nonapeptide, trifluoroacetate] (H-[Inp][Thr(3ξ)][Dab][Dab][Dab][dF]L[Dab][Dab][Thr(3ξ)]; lactam 4-C)
MIC P. aeruginosa CCUG 59626 (Pseudomonas aeruginosa [1]): 0.125 micrograms/mL | MIC A. baumannii ATCC13424 (Acinetobacter baumannii [2]): 2 micrograms/mL | MIC K. pneumoniae ATCC-BAA2146 (Klebsiella pneumoniae [4]): >32 micrograms/mL | MIC K. pneumoniae CCUG-59348 (Klebsiella pneumoniae [4]): >32 micrograms/mL | MIC P. aeruginosa ATCC 27853 (Pseudomonas aeruginosa [5]; [21]): 0.125 micrograms/mL | MIC P. aeruginosa ATCC CRM-9027 (Pseudomonas aeruginosa [5]; [9]): 0.125 micrograms/mL | MIC P. aeruginosa ATCC-47 (Pseudomonas aeruginosa [5]; [10]): 0.25 micrograms/mL | MIC P. aeruginosa CCUG 59626 (Pseudomonas aeruginosa [5]; [11]): 0.125 micrograms/mL | MIC P. aeruginosa ATCC 27853 (Pseudomonas aeruginosa [5]; [22]): 0.125 micrograms/mL | MIC P. aeruginosa ATCC CRM-9027 (Pseudomonas aeruginosa [5]; [22]): 0.125 micrograms/mL | MIC P. aeruginosa ATCC-47 (Pseudomonas aeruginosa [5]; [22]): 0.25 micrograms/mL | MIC P. aeruginosa CCUG 59626 (Pseudomonas aeruginosa [5]; [22]): 0.125 micrograms/mL | MIC A. baumannii ATCC BAA-747 (Acinetobacter baumannii [6]; [12]): ≤0.06 micrograms/mL | MIC A. baumannii CCUG57249 (Acinetobacter baumannii [6]; [13]): 0.125 micrograms/mL | MIC A. baumannii NCTC 13423 (Acinetobacter baumannii [6]; [14]): ≤0.06 micrograms/mL | MIC A. baumannii NCTC 13424 (Acinetobacter baumannii [6]; [15]): 0.125 micrograms/mL | MIC A. baumannii ATCC BAA-747 (Acinetobacter baumannii [6]; [22]): ≤0.06 micrograms/mL | MIC A. baumannii CCUG57249 (Acinetobacter baumannii [6]; [22]): 0.125 micrograms/mL | MIC A. baumannii NCTC 13423 (Acinetobacter baumannii [6]; [22]): ≤0.06 micrograms/mL | MIC A. baumannii NCTC 13424 (Acinetobacter baumannii [6]; [22]): 0.125 micrograms/mL | MIC E. coli ATCC25922 (Escherichia coli [7]; [16]): 0.125 micrograms/mL | MIC E. coli NCTC9001 (Escherichia coli [7]; [17]): 0.25 micrograms/mL | MIC E. coli ATCC25922 (Escherichia coli [7]; [22]): 0.125 micrograms/mL | MIC E. coli NCTC9001 (Escherichia coli [7]; [22]): 0.25 micrograms/mL | MIC K. pneumoniae ATCC 4352 (Klebsiella pneumoniae [8]; MIC = total drug concentration): ≤0.06 micrograms/mL | MIC K. pneumoniae ATCC-BAA-2146 (Klebsiella pneumoniae [8]; [18]): 0.25 micrograms/mL | MIC K. pneumoniae CCUG-59348 (Klebsiella pneumoniae [8]; [19]): 4 micrograms/mL | MIC K. pneumoniae NCTC 13438 (Klebsiella pneumoniae [8]; [20]): 0.5 micrograms/mL | MIC K. pneumoniae ATCC-BAA-2146 (Klebsiella pneumoniae [8]; [22]): 0.25 micrograms/mL | MIC K. pneumoniae CCUG-59348 (Klebsiella pneumoniae [8]; [22]): 4 micrograms/mL | MIC K. pneumoniae NCTC 13438 (Klebsiella pneumoniae [8]; [22]): 0.5 micrograms/mL

Source: patent US10407467B2, “Polymyxin derivatives and their use in combination therapy together with different antibiotics” (priority 2013, dated 2019)
